From ChEMBL document CHEMBL5108044, “Discovery of a Novel Potent STAT3 Inhibitor HP590 with Dual p-Tyr705/Ser727 Inhibitory Activity for Gastric Cancer Treatment” (J Med Chem, 2022) come the findings set out here.

Data set [1] can be described thus: Toxicity in BALB/c nude mouse xenografted with human MKN-45 cells assessed as liver damage at 25 to 50 mg/kg, po qd administered for 5 weeks by H and E staining based analysis. The data set is classed as organism-based. The conditions noted are these: in vivo, 840 h, dose 25-50 mg/kg.
Data set [2] in a line: Apparent volume of distribution in ICR mouse plasma at 1 mg/kg, iv measured up to 24 hrs by LC-MS/MS analysis. The data set is classed as ADME, organism-based. The note with it: read-out: Vz.
Data set [3] deals with AGS. The experiment in a line: Induction of apoptosis in human AGS cells assessed as viable cells at 10 nM incubated for 48 hrs by FITC-annexin V/propidium iodide staining based flow cytometry (reference value: 87.2%). The note with it: read-out: Activity. The data set is classed as functional.
The target of data set [4] is Epidermal growth factor receptor (Homo sapiens, UniProt P00533). Nature of the data set: Inhibition of EGFR (unknown origin).
In data set [5] the target is T1, Signal transducer and activator of transcription 3 (Homo sapiens, UniProt P40763). Nature of the data set: Inhibition of STAT3 phosphorylation at Ser727 residue in human MGC-803 cells upto 40 nM incubated upto 24 hrs by Western blotting analysis. Type of data set: cell-based.
Data set [6] concerns MGC-803. The experiment in a line: Antiproliferative activity against human MGC-803 cells assessed as cell viability incubated for 72 hrs by MTS assay. The note with it: dose <= 100.0 nM, DDE = dose-dependent effect. The data set is classed as functional, cell-based.
Data set [7] can be described thus: Volume of distribution at steady state in ICR mouse plasma at 1 mg/kg, iv measured up to 24 hrs by LC-MS/MS analysis. Type of data set: ADME, organism-based. The note with it: read-out: Vdss.
The target of data set [8] is T1, Signal transducer and activator of transcription 3. Nature of the data set: Inhibition of STAT3 phosphorylation at Ser727 residue in human MGC-803 cells incubated upto 24 hrs by Western blotting analysis. The data set is classed as cell-based. The note with it: dose <= 40.0 nM, DDE = dose-dependent effect.

T1 sequence (P40763 whole entry): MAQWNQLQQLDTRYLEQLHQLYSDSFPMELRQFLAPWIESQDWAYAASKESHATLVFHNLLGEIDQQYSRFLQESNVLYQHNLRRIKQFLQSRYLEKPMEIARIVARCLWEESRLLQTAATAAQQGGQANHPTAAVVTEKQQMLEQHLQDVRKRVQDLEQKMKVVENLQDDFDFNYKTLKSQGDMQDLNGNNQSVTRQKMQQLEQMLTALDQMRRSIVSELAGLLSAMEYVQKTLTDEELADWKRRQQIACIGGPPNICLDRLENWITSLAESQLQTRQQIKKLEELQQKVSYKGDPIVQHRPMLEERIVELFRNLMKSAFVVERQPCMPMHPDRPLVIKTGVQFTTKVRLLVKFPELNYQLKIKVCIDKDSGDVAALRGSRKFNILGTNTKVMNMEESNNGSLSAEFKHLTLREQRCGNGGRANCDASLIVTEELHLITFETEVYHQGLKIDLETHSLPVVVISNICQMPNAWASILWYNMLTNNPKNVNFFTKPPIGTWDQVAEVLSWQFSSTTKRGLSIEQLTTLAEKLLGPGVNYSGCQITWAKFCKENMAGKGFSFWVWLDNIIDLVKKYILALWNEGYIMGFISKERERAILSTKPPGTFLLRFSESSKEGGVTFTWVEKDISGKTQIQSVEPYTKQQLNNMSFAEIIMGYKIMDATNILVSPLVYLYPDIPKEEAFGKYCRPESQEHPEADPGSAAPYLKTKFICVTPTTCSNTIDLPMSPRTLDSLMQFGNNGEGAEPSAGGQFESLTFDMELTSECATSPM
Sequence of Epidermal growth factor receptor (P00533 whole entry): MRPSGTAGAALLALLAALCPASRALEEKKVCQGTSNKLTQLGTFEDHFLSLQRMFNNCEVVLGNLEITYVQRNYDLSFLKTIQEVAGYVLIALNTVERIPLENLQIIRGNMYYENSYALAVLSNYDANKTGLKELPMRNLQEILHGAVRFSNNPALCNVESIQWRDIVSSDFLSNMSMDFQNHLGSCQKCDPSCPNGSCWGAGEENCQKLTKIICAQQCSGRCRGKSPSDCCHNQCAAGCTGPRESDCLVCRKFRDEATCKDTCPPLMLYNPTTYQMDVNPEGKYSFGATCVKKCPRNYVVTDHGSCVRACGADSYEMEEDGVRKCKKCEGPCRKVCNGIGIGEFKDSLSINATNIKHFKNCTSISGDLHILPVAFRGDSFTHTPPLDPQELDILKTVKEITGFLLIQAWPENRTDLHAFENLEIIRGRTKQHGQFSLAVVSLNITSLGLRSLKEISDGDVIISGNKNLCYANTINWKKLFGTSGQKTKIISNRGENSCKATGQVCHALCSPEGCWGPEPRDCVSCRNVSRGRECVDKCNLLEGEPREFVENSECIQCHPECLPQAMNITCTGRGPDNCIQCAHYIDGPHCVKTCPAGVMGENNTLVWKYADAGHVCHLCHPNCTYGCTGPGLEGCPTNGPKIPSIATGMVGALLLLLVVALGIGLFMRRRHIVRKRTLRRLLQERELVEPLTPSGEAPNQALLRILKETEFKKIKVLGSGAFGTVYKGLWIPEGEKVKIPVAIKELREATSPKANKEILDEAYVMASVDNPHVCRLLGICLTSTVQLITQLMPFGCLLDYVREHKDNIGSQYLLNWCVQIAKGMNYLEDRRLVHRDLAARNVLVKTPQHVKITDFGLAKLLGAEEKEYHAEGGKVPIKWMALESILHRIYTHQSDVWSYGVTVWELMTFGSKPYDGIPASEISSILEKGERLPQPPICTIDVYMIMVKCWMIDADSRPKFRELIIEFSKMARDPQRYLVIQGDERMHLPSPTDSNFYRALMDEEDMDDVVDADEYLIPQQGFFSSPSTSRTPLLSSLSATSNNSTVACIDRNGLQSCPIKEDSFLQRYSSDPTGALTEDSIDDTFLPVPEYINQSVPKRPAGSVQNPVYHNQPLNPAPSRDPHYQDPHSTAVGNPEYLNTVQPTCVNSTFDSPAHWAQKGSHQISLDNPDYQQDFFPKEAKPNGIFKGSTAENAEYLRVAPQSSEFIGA

Take `O=C(c1ccc(-c2noc(-c3ccc(C(F)(F)F)cc3)n2)cc1)N1CCN(Cc2ccc(OCC(F)(F)F)cc2)CC1`: the figures for the Activity result in data set [1] and in data set [6] were “Non-Toxic” and “Dde”, respectively. Also, the Vd in data set [2] stood at 5.76 L/kg; in data set [7], 6.56 L/kg. For the same compound, in data set [3], the viability at 0.01 µM amounted to 82.3%. For the same compound, the IC50 in data set [4] is over 10 µM. Also, the figures for the inhibition in data set [5] and in data set [8] were 100% and “Dde”, respectively.
